We go through 34 compounds from patent US20240245673A1, “Papain-like protease (PLpro) inhibitors” (Pfizer Inc., priority 2022, published 2024).

Structures are written as SMILES.

In the test the target is SARS-CoV-2 Papain like protease (PLpro) (Severe acute respiratory syndrome coronavirus 2 (2019-nCoV) (SARS-CoV-2), UniProt P0DTD1). Put plainly: Papain Like Protease (PLpro) biochemical assay with profluorogenic substrate Z-RLRGG-AMC. The conditions noted are these: SARS-CoV-2 PLpro 6.25 nM, 25 μM Z-RLRGG-AMC substrate, 60 minute reaction; read-out: IC50.
As to `Cc1cc(C(C)(C)NC(=O)c2ncc[nH]2)ccc1C(=O)N[C@H](C)c1cc(-c2cnn(C)c2)nc2ccccc12` [Example 215, (R)-N-(2-(3-methyl-4-((1-(2-(1-methyl-1H-pyrazol-4-yl)quinolin-4-yl)ethyl)carbamoyl)phenyl)propan-2-yl)-1H-imidazole-2-carboxamide], the IC50 was 144 nM.

On to `COC[C@@H](OCc1cocn1)c1ccc(C(=O)NC2(c3cc(-c4cnn(C)c4)cc4ncccc34)CC2)c(C)c1` (single isomer, unassigned) [Example 355], for which the IC50 is under 1 nM.

For `Cc1cc(C(O)C(=O)Nc2cscn2)ccc1C(=O)N[C@H](C)c1cc(-c2cnn(C)c2)nc2ccccc12` (stereo partly drawn) [Example 301, 4-(1-hydroxy-2-oxo-2-(thiazol-4-ylamino)ethyl)-2-methyl-N-((R)-1-(2-(1-methyl-1H-pyrazol-4-yl)quinolin-4-yl)ethyl)benzamide], the IC50 amounted to 1 nM.

With `Cc1ccc(NC(=O)[C@H]2CCCCN2)cc1C(=O)N[C@H](C)c1cc(N)nc2ccccc12` (single isomer, unassigned) [Example 28, (R)—N-(3-(((R*)-1-(2-aminoquinolin-4-yl)ethyl)carbamoyl)-4-methylphenyl) piperidine-2-carboxamide], the concentration for half-maximal inhibition (IC50) turned out to be 5450 nM.

With `Cc1ccccc1C(=O)NC(C)c1cc(CC2CCOCC2)nc2ccccc12` (stereo in doubt) [Example 152, 2-methyl-N-[(1R)-1-{2-[(oxan-4-yl)methyl]quinolin-4-yl}ethyl]benzamide], the IC50 came to 623 nM.

For `COC(=O)c1c[nH]c(-c2cc(C(C)NC(=O)c3cc(N4CCN(C)CC4)ccc3C)c3ccccc3c2)c1` (stereo not shown) [Example 228, methyl 5-(4-(1-(2-methyl-5-(4-methylpiperazin-1-yl)benzamido)ethyl)naphthalen-2-yl)-1H-pyrrole-3-carboxylate], the half-maximal inhibitory concentration (IC50) is 7 nM.

With `Cc1ccc(CN)cc1C(=O)NC1(c2cc(-c3cnn(C)c3)cc3ccccc23)CC1` [Example 75, 5-(aminomethyl)-2-methyl-N-(1-(3-(1-methyl-1H-pyrazol-4-yl)naphthalen-1-yl)cyclopropyl)benzamide], the IC50 was found to be 12 nM.

Regarding `Cc1ccccc1C(=O)N[C@H](C)c1cc(NC2COC2)nc2ccccc12` [Example 37, (R)-2-methyl-N-(1-(2-(oxetan-3-ylamino)quinolin-4-yl)ethyl)benzamide], the IC50 worked out at 10000 nM.

Turning to `Cc1ccccc1C(=O)NC(C)c1cc(NCC2CCS(=O)(=O)CC2)nc2ccccc12` (stereo not shown) [Example 144, N-(1-(2-(((1,1-dioxidotetrahydro-2H-thiopyran-4-yl)methyl)-amino)quinolin-4-yl)ethyl)-2-methylbenzamide], the IC50 was determined as 1110 nM.

Consider `Cc1cc(COCc2nccn2C)ccc1C(=O)N[C@H](C)c1cc(-c2cnn(C)c2)nc2ccccc12` [Example 291, (R)-2-methyl-4-(((1-methyl-1H-imidazol-2-yl)methoxy)methyl)-N-(1-(2-(1-methyl-1H-pyrazol-4-yl)quinolin-4-yl)ethyl)benzamide], for which the IC50 worked out at 1 nM.

On to `CC(=O)N(Cc1ccc(C(=O)N[C@H](C)c2cc(-c3cnn(C)c3)nc3ccccc23)c(C)c1)Cc1cscn1` [Example 267, (R)-2-methyl-N-(1-(2-(1-methyl-1H-pyrazol-4-yl)quinolin-4-yl)ethyl)-4-((N-(thiazol-4-ylmethyl)acetamido)methyl)benzamide], for which the IC50 was found to be 210 nM.

Consider `Cc1cc(COCc2cocn2)ccc1C(=O)NC1(c2cc(-c3cnn(C)c3)nc3ccccc23)CC1` [Example 344, 2-methyl-N-(1-(2-(1-methyl-1H-pyrazol-4-yl)quinolin-4-yl)cyclopropyl)-4-((oxazol-4-ylmethoxy)methyl)benzamide], for which the IC50 was under 1 nM.

Regarding `Cc1ccc(N(C)C(=O)[C@H]2CCCCN2)cc1C(=O)N[C@H](C)c1cc(-c2cnn(C)c2)nc2ccccc12` [Example 15, (R)—N-methyl-N-(4-methyl-3-(((R)-1-(2-(1-methyl-1H-pyrazol-4-yl)quinolin-4-yl)ethyl)carbamoyl)phenyl)piperidine-2-carboxamide], the IC50 came out at 495 nM.

In the case of `Cc1ccccc1C(=O)NC(C)c1cc(-c2cn(C)nc2C)nc2ccccc12` (stereo not shown) [Example 126, N-{1-[2-(1,3-dimethyl-1H-pyrazol-4-yl)quinolin-4-yl]ethyl}-2-methylbenzamide], the IC50 is 845 nM.

For `Cc1cc(CNCc2ncc[nH]2)ccc1C(=O)NC(C)c1cc(-c2cnn(C)c2)cc2ccccc12` (stereo not shown) [Example 6, 4-((((1H-imidazol-2-yl)methyl)amino)methyl)-2-methyl-N-(1-(3-(1-methyl-1H-pyrazol-4-yl)naphthalen-1-yl)ethyl)benzamide], the IC50 turned out to be 19 nM.

As to `COC[C@H](OCc1cocn1)c1ccc(C(=O)NC2(c3cc(-c4cc(C(=O)N(C)C)n[nH]4)cc4ncccc34)CC2)c(C)c1` (single isomer, unassigned) [Example 359], the half-inhibitory concentration (IC50) was under 1 nM.

For `Cc1ccc(NC(=O)[C@H]2CCCCN2)cc1C(=O)N[C@H](C)c1cc(-c2cnn(C)c2)cc2ccccc12` (single isomer, unassigned) [Example 67], the IC50 was found to be 272 nM.

As for `CCOC(=O)/C=C/C(=O)NNC(=O)CCc1ccccc1C(=O)N[C@H](C)c1cc(-c2cnn(C)c2)nc2ccccc12` [Example 232, ethyl (R,E)-4-(2-(3-(2-((1-(2-(1-methyl-1H-pyrazol-4-yl)quinolin-4-yl)ethyl)carbamoyl)phenyl)propanoyl)hydrazineyl)-4-oxobut-2-enoate], the IC50 was found to be 3 nM.

For the compound `Cc1ccc(CN)cc1C(=O)NC(C)c1cc(-n2ncc(C(F)(F)F)n2)nc2ccccc12` (stereo not shown) [Example 32, 5-(aminomethyl)-2-methyl-N-(1-(2-(4-(trifluoromethyl)-2H-1,2,3-triazol-2-yl)quinolin-4-yl)ethyl)benzamide], the IC50 was 676 nM.

As for `Cc1ccccc1C(=O)NC(C)c1cc(-c2ccsc2)nc2ccccc12` (stereo not shown) [Example 119, 2-methyl-N-{1-[2-(thiophen-3-yl)quinolin-4-yl]ethyl} benzamide], the IC50 amounted to 244 nM.

Turning to `Cc1cc(C(C)OCc2nccn2C)ncc1C(=O)N[C@H](C)c1cc(-c2cnn(C)c2)nc2ccccc12` (stereo partly drawn) [Example 322, 4-methyl-6-(1-((1-methyl-1H-imidazol-2-yl)methoxy)ethyl)-N-((R)-1-(2-(1-methyl-1H-pyrazol-4-yl)quinolin-4-yl)ethyl)nicotinamide], the IC50 was 7 nM.

For `Cc1ccccc1C(=O)NC(C)c1cc(C2CC(F)(F)C2)nc2ccccc12` (stereo in doubt) [Example 154, N-{(1R)-1-[2-(3,3-difluorocyclobutyl)quinolin-4-yllethyl}-2-methylbenzamide], the IC50 came out at 988 nM.

With `Cc1ccccc1C(=O)N[C@H](C)c1cc(-c2cnoc2)nc2ccccc12` [Example 58, (R)-N-(1-(2-(isoxazol-4-yl)quinolin-4-yl)ethyl)-2-methylbenzamide], the IC50 came out at 100000 nM.

For `Cc1cc(-c2cc(C(C)NC(=O)c3ccccc3C)c3ccccc3n2)c[nH]1` (stereo not shown) [Example 117, 2-methyl-N-{1-[2-(5-methyl-1H-pyrrol-3-yl)quinolin-4-yl]ethyl}benzamide], the IC50 was 412 nM.

Take `Cc1cc(COCc2cocn2)ccc1C(=O)NC1(c2cc(-c3cnn(C)c3)cc3ncccc23)CC1` [Example 345, 2-methyl-N-(1-(7-(1-methyl-1H-pyrazol-4-yl)quinolin-5-yl)cyclopropyl)-4-((oxazol-4-ylmethoxy)methyl)benzamide]: the IC50 was under 1 nM.

Turning to `Cc1cc(CC(=O)N(C)C)ccc1C(=O)N[C@H](C)c1cc(-c2cnn(C)c2)nc2ccccc12` [Example 260, (R)-4-(2-(dimethylamino)-2-oxoethyl)-2-methyl-N-(1-(2-(1-methyl-1H-pyrazol-4-yl)quinolin-4-yl)ethyl)benzamide], the IC50 turned out to be 244 nM.

Regarding `Cc1cc(CN(Cc2cscn2)S(C)(=O)=O)ccc1C(=O)N[C@H](C)c1cc(-c2cnn(C)c2)nc2ccccc12` [Example 268, (R)-2-methyl-N-(1-(2-(1-methyl-1H-pyrazol-4-yl)quinolin-4-yl)ethyl)-4-((N-(thiazol-4-ylmethyl)methylsulfonamido)methyl)benzamide], the IC50 turned out to be 139 nM.

`Cc1ccc(N2CCCC(N)C2=O)cc1C(=O)N[C@H](C)c1cc(-c2cnn(C)c2)nc2ccccc12` (stereo partly shown) [Example 235]: the IC50 worked out at 91 nM.

For the compound `Cc1cc(C(C)(C)NCc2cscn2)ccc1C(=O)N[C@H](C)c1cc(-c2cnn(C)c2)nc2ccccc12` [Example 241, (R)-2-methyl-N-(1-(2-(1-methyl-1H-pyrazol-4-yl)quinolin-4-yl)ethyl)-4-(2-((thiazol-4-ylmethyl)amino)propan-2-yl)benzamide], the IC50 was determined as 7 nM.

Take `COC[C@H](OCc1cscn1)c1ccc(C(=O)NC2(c3cc(-c4cnn(C)c4)cc4ncccc34)CC2)c(C)c1` (single isomer, unassigned) [Example 335]: the IC50 was under 1 nM.

Take `Cc1ccc(N2CCN(C)CC2)cc1C(=O)NC1(c2cc(-c3ccc(C(=O)N(C)C)[nH]3)cc3ccccc23)CC1` [Example 292, N,N-dimethyl-5-(4-(1-(2-methyl-5-(4-methylpiperazin-1-yl)benzamido)cyclopropyl)naphthalen-2-yl)-1H-pyrrole-2-carboxamide]: the IC50 was under 1 nM.

On to `COC[C@@H](OCc1cscn1)c1ccc(C(=O)NC2(c3cc(-c4cnn(C)c4)cc4ncccc34)CC2)c(C)c1` (single isomer, unassigned) [Example 334], for which the IC50 was under 1 nM.

For `COC(=O)[C@H]1O[C@@H]1C(=O)NNC(=O)CCc1ccccc1C(=O)N[C@H](C)c1cc(-c2cnn(C)c2)nc2ccccc12` [Example 220, methyl(2S,3S)-3-(2-(3-(2-(((R)-1-(2-(1-methyl-1H-pyrazol-4-yl)quinolin-4-yl)ethyl)carbamoyl)phenyl)propanoyl)hydrazine-1-carbonyl)oxirane-2-carboxylate], the IC50 was 2 nM.

As for `Cc1ccc(N2CCN(C)CC2)cc1C(=O)NC1(c2cc(-c3cc(C(=O)N(C)C)c[nH]3)cc3ccccc23)CC1` [Example 277, N,N-dimethyl-5-(4-(1-(2-methyl-5-(4-methylpiperazin-1-yl)benzamido)cyclopropyl)naphthalen-2-yl)-1H-pyrrole-3-carboxamide], the IC50 turned out to be 2 nM.

Broadly, the IC50 is the concentration that inhibits the measured activity by half.
